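Following 48 hours of exposure in 96-well plates, responses at five concentrations were used to interpolate endpoints linearly. GI50 = concentration required for 50% inhibition of growth. TGI denotes the concentration required for complete inhibition of growth.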
Experiments:
Experiment in all cases: growth of human tumour cells (NCI), 48 h
UACC-62 melanoma = tested on: UACC-62 melanoma
786-0 renal = tested on: 786-0 renal
RPMI-8226 leukemia = tested on: RPMI-8226 leukemia
SNB-19 CNS = tested on: SNB-19 CNS
HOP-92 NSCLC = tested on: HOP-92 NSCLC
COLO 205 colon = tested on: COLO 205 colon
NCI-H226 lung = tested on: NCI-H226 lung
MDA-MB-231 breast = tested on: MDA-MB-231 breast
SF-295 CNS = tested on: SF-295 CNS
HCT-15 colon = tested on: HCT-15 colon
SF-539 CNS = tested on: SF-539 CNS
SK-MEL-5 melanoma = tested on: SK-MEL-5 melanoma
OVCAR-5 ovarian = tested on: OVCAR-5 ovarian
SW-620 colon = tested on: SW-620 colon
LOX IMVI melanoma = tested on: LOX IMVI melanoma
MALME-3M melanoma = tested on: MALME-3M melanoma
T-47D breast = tested on: T-47D breast
IGROV1 ovarian = tested on: IGROV1 ovarian
HS 578T breast = tested on: HS 578T breast
OVCAR-8 ovarian = tested on: OVCAR-8 ovarian
HCT-116 colon = tested on: HCT-116 colon
OVCAR-3 ovarian = tested on: OVCAR-3 ovarian
DU-145 prostate = tested on: DU-145 prostate
SK-OV-3 ovarian = tested on: SK-OV-3 ovarian
RXF 393 renal = tested on: RXF 393 renal
NCI-H23 lung = tested on: NCI-H23 lung
CCRF-CEM leukemia = tested on: CCRF-CEM leukemia
KM12 colon = tested on: KM12 colon

C=C1C(=O)O[C@H]2[C@H]1CC/C(COC(=O)CSCSCC(=O)OC/C1=C/CC[C@@]3(C)O[C@H]3[C@H]3OC(=O)C(=C)[C@@H]3CC1)=C\CC[C@@]1(C)O[C@@H]21
GI50 (UACC-62 melanoma): 1.88 µM | TGI (UACC-62 melanoma): 4.03 µM | GI50 (786-0 renal): 1.41 µM | TGI (786-0 renal): 2.89 µM | GI50 (RPMI-8226 leukemia): 0.597 µM | TGI (RPMI-8226 leukemia): 3.71 µM | GI50 (SNB-19 CNS): 2.44 µM | TGI (SNB-19 CNS): 5.99 µM | GI50 (HOP-92 NSCLC): 1.39 µM | TGI (HOP-92 NSCLC): 2.85 µM | GI50 (COLO 205 colon): 1.34 µM | TGI (COLO 205 colon): 3.06 µM | GI50 (NCI-H226 lung): 3.51 µM | TGI (NCI-H226 lung): 13.9 µM | GI50 (MDA-MB-231 breast): 1.39 µM | TGI (MDA-MB-231 breast): 3 µM | GI50 (SF-295 CNS): 1.85 µM | TGI (SF-295 CNS): 4.46 µM | GI50 (HCT-15 colon): 1.33 µM | TGI (HCT-15 colon): 2.83 µM | GI50 (SF-539 CNS): 1.47 µM | TGI (SF-539 CNS): 2.89 µM | GI50 (SK-MEL-5 melanoma): 1.95 µM | TGI (SK-MEL-5 melanoma): 4.33 µM | GI50 (OVCAR-5 ovarian): 1.95 µM | TGI (OVCAR-5 ovarian): 3.92 µM | GI50 (SW-620 colon): 1.41 µM | TGI (SW-620 colon): 3.26 µM | GI50 (LOX IMVI melanoma): 1.3 µM | TGI (LOX IMVI melanoma): 2.65 µM | GI50 (MALME-3M melanoma): 1.58 µM | TGI (MALME-3M melanoma): 3.29 µM | GI50 (T-47D breast): 1.53 µM | TGI (T-47D breast): 3.7 µM | GI50 (IGROV1 ovarian): 1.78 µM | TGI (IGROV1 ovarian): 4.46 µM | GI50 (HS 578T breast): 4.88 µM | TGI (HS 578T breast): 64.2 µM | GI50 (OVCAR-8 ovarian): 1.93 µM | TGI (OVCAR-8 ovarian): 4.96 µM | GI50 (HCT-116 colon): 0.59 µM | TGI (HCT-116 colon): 1.93 µM | GI50 (OVCAR-3 ovarian): 1.2 µM | TGI (OVCAR-3 ovarian): 2.54 µM | GI50 (DU-145 prostate): 1.66 µM | TGI (DU-145 prostate): 3.19 µM | GI50 (SK-OV-3 ovarian): 5.1 µM | TGI (SK-OV-3 ovarian): 16.5 µM | GI50 (RXF 393 renal): 1.23 µM | TGI (RXF 393 renal): 2.83 µM | GI50 (NCI-H23 lung): 1.83 µM | TGI (NCI-H23 lung): 4.01 µM | GI50 (CCRF-CEM leukemia): 0.304 µM | TGI (CCRF-CEM leukemia): 1.47 µM | GI50 (KM12 colon): 1.93 µM
